Data reported in US20230117034A1, “PYRAZOLOTRIAZINES” (Bayer Aktiengesellschaft, priority 2019, published 2023).

Tests used:
[1] = biological target: T1, CYCLIN K (nuclear staining in CAL-120 cells) (Homo sapiens, UniProt O75909); experiment: CYCLIN K nuclear protein level: immunofluorescence high content analysis (CAL-120); type: cell-based; settings: 24 h, 50% reduction of nuclear CCNK staining intensity, median, read-out: CYCLIN K degradation IF, DC50-[mol/l] (median)
T1 construct: endogenous in cells; host or cells: CAL-120 human breast cancer cells (DSMZ ACC 459)
T1 sequence (O75909 whole entry): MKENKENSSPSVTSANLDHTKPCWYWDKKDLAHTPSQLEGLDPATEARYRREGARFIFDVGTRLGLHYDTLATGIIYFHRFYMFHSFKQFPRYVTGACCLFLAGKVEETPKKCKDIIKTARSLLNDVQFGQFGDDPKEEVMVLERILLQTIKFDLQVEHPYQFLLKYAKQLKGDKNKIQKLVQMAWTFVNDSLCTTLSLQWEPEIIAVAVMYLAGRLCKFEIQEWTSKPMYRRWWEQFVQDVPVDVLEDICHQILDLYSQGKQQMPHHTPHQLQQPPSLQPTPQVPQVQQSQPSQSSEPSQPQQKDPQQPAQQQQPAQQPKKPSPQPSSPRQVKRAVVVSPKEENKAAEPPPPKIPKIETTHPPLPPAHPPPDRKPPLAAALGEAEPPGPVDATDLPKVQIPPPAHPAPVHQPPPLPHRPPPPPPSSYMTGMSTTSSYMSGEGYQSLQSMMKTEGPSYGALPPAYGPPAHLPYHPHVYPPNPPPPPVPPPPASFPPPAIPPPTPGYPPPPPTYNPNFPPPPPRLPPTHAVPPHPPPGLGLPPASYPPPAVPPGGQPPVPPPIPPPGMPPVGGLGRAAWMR
T1 sequence (Q9NYV4 whole entry partner): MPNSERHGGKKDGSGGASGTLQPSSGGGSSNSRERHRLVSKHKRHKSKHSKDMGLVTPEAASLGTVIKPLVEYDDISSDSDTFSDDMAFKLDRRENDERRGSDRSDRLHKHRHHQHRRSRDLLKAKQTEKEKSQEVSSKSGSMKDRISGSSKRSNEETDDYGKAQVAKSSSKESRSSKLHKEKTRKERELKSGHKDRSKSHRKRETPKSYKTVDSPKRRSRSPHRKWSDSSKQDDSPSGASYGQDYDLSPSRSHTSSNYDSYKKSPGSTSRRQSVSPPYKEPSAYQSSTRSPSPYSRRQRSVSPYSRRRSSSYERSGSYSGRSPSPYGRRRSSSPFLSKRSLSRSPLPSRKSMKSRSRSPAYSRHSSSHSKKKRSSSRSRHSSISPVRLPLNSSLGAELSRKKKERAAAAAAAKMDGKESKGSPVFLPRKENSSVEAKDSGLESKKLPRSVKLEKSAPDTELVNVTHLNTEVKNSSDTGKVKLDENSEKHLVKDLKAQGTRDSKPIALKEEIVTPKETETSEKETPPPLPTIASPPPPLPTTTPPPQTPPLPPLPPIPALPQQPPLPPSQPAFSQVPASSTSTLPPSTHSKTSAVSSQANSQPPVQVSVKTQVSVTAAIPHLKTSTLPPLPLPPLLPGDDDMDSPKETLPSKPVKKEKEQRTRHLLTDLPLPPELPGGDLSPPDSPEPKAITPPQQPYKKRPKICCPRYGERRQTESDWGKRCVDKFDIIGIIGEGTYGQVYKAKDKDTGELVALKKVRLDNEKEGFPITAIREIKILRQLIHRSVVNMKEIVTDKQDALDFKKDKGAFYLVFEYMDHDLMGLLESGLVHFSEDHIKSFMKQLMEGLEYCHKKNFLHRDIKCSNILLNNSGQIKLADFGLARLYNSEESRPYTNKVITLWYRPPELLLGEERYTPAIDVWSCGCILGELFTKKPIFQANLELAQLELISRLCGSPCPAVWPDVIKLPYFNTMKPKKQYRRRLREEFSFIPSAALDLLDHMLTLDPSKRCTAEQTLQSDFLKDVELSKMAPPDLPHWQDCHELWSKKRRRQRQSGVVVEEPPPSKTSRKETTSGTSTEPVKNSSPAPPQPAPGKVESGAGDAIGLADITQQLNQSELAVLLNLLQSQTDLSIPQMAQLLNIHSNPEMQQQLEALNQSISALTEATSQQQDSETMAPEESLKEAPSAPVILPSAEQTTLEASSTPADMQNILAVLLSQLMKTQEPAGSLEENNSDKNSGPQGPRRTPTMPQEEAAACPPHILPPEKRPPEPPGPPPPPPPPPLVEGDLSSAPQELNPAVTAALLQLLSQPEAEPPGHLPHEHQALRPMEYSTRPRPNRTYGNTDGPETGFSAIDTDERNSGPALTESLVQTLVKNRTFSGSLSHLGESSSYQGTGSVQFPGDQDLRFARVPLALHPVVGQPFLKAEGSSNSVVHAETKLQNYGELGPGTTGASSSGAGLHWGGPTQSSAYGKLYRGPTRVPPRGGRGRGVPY
Protocol: 8. CYCLIN K nuclear protein level: immunofluorescence High Content Analysis
CAL-120 human breast cancer cells (DSMZ ACC 459) are seeded in 1536-well microtiter plates (800 cells per well) containing 50 nanoL of compounds in Dose-Response. Control wells received DMSO or Example 4. Plates are then incubated for 24 h at 37° C. in an humidified incubator and fixed with 4% PFA for 10 min. Then immunofluorescence (IF) against CYCLIN K (ThermoFisher Scientific CONK Antibody #PA5-85020, rabbit, 1:200 dilution) is performed using standard IF protocols. Cells are then stained with Hoechst 33342 (Life Technologies, H-1399, 0.1 microg/ml) and imaged on an automated confocal microscopy system (e.g. Perkin Elmer Opera Phenix). Nuclear and cytoplasmic intensity as well as the nuclear/cytoplasmic intensity ratio is determined by automated image analysis using custom generated scripts (MetaXpress). Data is then transferred to Genedata Screener software, normalized to DMSO and control and DC50 values (degrading concentration to achieve 50% reduction of nuclear CCNK staining intensity relative to controls) are reported.

[2] = system: BRCA1 mRNA expression in MDA-MB-231 cells; experiment: qRT-PCR assay: BRCA1 mRNA expression in MDA-MB-231; type: cell-based, human; settings: Homo sapiens, MDA-MB-231, Inhibition of BRCA1 mRNA expression in MDA-MB-231 cells; median; read-out: RTqPCR-MDA-MB-231, IC50, BRCA1 (median)
Protocol: 3. qRT-PCR Assay: BRCA, ATR, MCL1 in MDA-MB-231, CAL-120
Tissue cultured human MDA-MB-231 human breast cancer cells were plated in 500 microL per well at 200,000 cells/well in a 24 well microtiter plate. After 24 h, the cells were exposed continuously for 24 h to test substances (substances were added with Tecan HP 0300 Dispenser). RNA was prepared using Qiagen RNeasy MiniKit (#74106), RNA was quantified using a NanoDrop Equipment, and 600 nano gamms of RNA was coverted to cDNA using a SuperScript VILO kit (Thermofisher #11755050) followed by qPCR amplification. BRCA1 and ATR gene expression was measured by RT-qPCR and normalised to GAPDH housekeeping gene expression. qPCR primer sets have been purchased from Thermo Fisher Scientific/Applied Biosystems: BRCA1, #Hs 01556193; ATR, #Hs 00992123; GAPDH, #Hs 03929097.

CDK9/CycT1 = biological target: T2, CDK9/CycT1 (Homo sapiens, UniProt P50750); experiment: CDK9/CycT1 high ATP kinase assay (TR-FRET, 2 mM ATP); type: biochemical; settings: 2 mM ATP (high ATP); median; read-out: CDK9/CyclinT1, 2 mM ATP (high ATP), IC50 (median)
T2 construct: Recombinant full-length His-tagged human CDK9 and CycT1; purchased Life Technologies PV4131; host or cells: insect cells
T2 sequence (P50750 whole entry): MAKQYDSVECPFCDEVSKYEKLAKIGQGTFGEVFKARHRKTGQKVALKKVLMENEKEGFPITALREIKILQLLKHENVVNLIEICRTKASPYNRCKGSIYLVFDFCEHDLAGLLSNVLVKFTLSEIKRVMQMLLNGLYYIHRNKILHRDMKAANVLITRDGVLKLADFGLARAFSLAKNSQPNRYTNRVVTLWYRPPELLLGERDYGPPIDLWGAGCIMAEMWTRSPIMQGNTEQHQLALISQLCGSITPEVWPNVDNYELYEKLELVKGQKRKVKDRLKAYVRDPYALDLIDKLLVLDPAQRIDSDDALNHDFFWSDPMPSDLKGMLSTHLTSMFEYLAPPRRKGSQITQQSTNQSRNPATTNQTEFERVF
T2 sequence (O60563 whole entry partner): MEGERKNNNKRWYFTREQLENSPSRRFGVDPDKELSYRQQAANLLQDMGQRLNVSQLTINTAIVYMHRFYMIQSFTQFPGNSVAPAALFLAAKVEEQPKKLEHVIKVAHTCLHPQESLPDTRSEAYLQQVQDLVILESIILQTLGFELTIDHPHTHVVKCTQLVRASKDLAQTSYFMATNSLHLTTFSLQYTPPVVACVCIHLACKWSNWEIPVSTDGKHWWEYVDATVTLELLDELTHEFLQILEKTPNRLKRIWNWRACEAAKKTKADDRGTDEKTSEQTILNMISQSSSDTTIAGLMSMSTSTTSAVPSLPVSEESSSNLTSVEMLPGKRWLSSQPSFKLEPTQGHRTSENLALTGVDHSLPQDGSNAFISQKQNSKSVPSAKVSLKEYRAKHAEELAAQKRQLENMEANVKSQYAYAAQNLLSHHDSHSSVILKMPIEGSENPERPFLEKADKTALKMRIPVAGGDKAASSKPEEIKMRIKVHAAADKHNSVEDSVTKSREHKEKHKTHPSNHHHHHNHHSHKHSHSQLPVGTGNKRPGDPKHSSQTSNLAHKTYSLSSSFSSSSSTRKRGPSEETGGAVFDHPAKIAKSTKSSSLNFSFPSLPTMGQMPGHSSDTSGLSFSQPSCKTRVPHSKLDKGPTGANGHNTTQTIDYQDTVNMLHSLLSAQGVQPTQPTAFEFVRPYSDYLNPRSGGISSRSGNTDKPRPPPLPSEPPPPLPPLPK
Protocol: CDK9/CycT1-inhibitory activity of compounds of the present invention at a high ATP concentration after preincubation of enzyme and test compounds was quantified employing the CDK9/CycT1 TR-FRET assay as described in the following paragraphs.
Recombinant full-length His-tagged human CDK9 and CycT1, expressed in insect cells and purified by Ni-NTA affinity chromatography, were purchased from Life Technologies (Cat. No PV4131). As substrate for the kinase reaction biotinylated peptide biotin-Ttds-[…] (C-terminus in amide form) was used which can be purchased e.g. form the company JERINI peptide technologies (Berlin, Germany).
For the assay 50 nanoL of a 100 fold concentrated solution of the test compound in DMSO was pipetted into either a black low volume 384 well microtiter plate or a black 1536 well microtiter plate (both Greiner Bio-One, Frickenhausen, Germany), 2 microL of a solution of CDK9/CycT1 in aqueous assay buffer [50 millimol/L Tris/HCl pH 8.0, 10 millimol/L MgCl2, 1.0 millimol/L dithiothreitol, 0.1 millimol/L sodium ortho-vanadate, 0.01% (v/v) Nonidet-P40 (Sigma)] were added and the mixture was incubated for 15 min at 22° C. to allow pre-binding of the test compounds to the enzyme before the start of the kinase reaction. […] The concentration of CDK9/CycT1 was adjusted depending of the activity of the enzyme lot and was chosen appropriate to have the assay in the linear range, typical concentrations were in the range of 0.5 microg/ml.
The resulting mixture was incubated 1 h at 22° C. to allow the formation of complex between the phosphorylated biotinylated peptide and the detection reagents. Subsequently the amount of phosphorylated substrate was evaluated by measurement of the resonance energy transfer from the Eu-chelate to the streptavidine-XL. Therefore, the fluorescence emissions at 620 nm and 665 nm after excitation at 350 nm was measured in a TR-FRET reader, e.g. a Pherastar (BMG Labtechnologies, Offenburg, Germany) or a Viewlux (Perkin-Elmer). The ratio of the emissions at 665 nm and at […] was taken as the measure for the amount of phosphorylated substrate.

SMILES | DC50 [1] | IC50 [2] | IC50 (CDK9/CycT1)
Fc1ccc(-c2nnc(CNc3nc(N4CCOCC4)nc4c(Br)cnn34)[nH]2)cc1F [Example 99, 8-bromo-N-{[5-(3,4-difluorophenyl)-4H-1,2,4-triazol-3-yl]methyl}-2-(morpholin-4-yl)pyrazolo[1,5-a][1,3,5]triazin-4-amine] | 3.05 nM | 11.2 nM | 0.97 µM
Cc1ccc(-c2nnc(CNc3nc(N4CCOCC4)nc4c(Br)cnn34)[nH]2)cc1F [Example 98, 8-bromo-N-{[5-(3-fluoro-4-methylphenyl)-4H-1,2,4-triazol-3-yl]methyl}-2-(morpholin-4-yl)pyrazolo[1,5-a][1,3,5]triazin-4-amine] | 28.1 nM | 78.8 nM | 0.953 µM
Fc1cc(-c2nnc(CNc3nc(N4CCOCC4)nc4c(Br)cnn34)[nH]2)cc(F)c1F [Example 100, 8-bromo-2-(morpholin-4-yl)-N-{[5-(3,4,5-trifluorophenyl)-4H-1,2,4-triazol-3-yl]methyl}pyrazolo[1,5-a][1,3,5]triazin-4-amine] | 7.4 nM | 62.2 nM | 0.82 µM
CN1CCN(c2nc(NCc3nnc(-c4cccc(F)c4)[nH]3)n3ncc(Br)c3n2)CC1 [Example 136, 8-bromo-N-{[5-(3-fluorophenyl)-4H-1,2,4-triazol-3-yl]methyl}-2-(4-methylpiperazin-1-yl)pyrazolo[1,5-a][1,3,5]triazin-4-amine] | 0.464 nM | 33.8 nM | 1.42 µM
CN1CCN(c2nc(NCc3nc4c(F)c(F)ccc4[nH]3)n3ncc(Br)c3n2)CC1 [Example 133, 8-bromo-N-[(4,5-difluoro-1H-benzimidazol-2-yl)methyl]-2-(4-methylpiperazin-1-yl)pyrazolo[1,5-a][1,3,5]triazin-4-amine] | 0.0633 nM | 4.23 nM | > 20 µM
Brc1cnn2c(NCc3nnc(-c4ccccc4)[nH]3)nc(N3C[C@H]4C[C@@H]3CO4)nc12 [Example 118, 8-bromo-2-[(1R,4R)-2-oxa-5-azabicyclo[2.2.1]heptan-5-yl]-N-[(5-phenyl-4H-1,2,4-triazol-3-yl)methyl]pyrazolo[1,5-a][1,3,5]triazin-4-amine] | 2.98 nM | 26.1 nM | 3.63 µM
Fc1cccc(-c2nnc(CNc3nc(N4C[C@H]5C[C@@H]4CO5)nc4c(Br)cnn34)[nH]2)c1 [Example 153, 8-bromo-N-{[5-(3-fluorophenyl)-4H-1,2,4-triazol-3-yl]methyl}-2-[(1R,4R)-2-oxa-5-azabicyclo[2.2.1]heptan-5-yl]pyrazolo[1,5-a][1,3,5]triazin-4-amine] | 1.42 nM | 8.2 nM | 1.23 µM
C[C@H]1CN(c2nc(NCc3nnc(-c4ccccc4)[nH]3)n3ncc(Br)c3n2)CCN1C.O=CO [Example 122, 8-bromo-2-[(3S)-3,4-dimethylpiperazin-1-yl]-N-[(5-phenyl-4H-1,2,4-triazol-3-yl)methyl]pyrazolo[1,5-a][1,3,5]triazin-4-amine formate] | 0.735 nM | 24.6 nM | 4.26 µM
CN1CCN(c2nc(NCc3nc4c(F)cccc4[nH]3)n3ncc(Br)c3n2)CC1 [Example 126, 8-bromo-N-[(4-fluoro-1H-benzimidazol-2-yl)methyl]-2-(4-methylpiperazin-1-yl)pyrazolo[1,5-a][1,3,5]triazin-4-amine] | 0.142 nM | 10.1 nM | > 20 µM

More lines, now with the values ahead:

DC50 [1] | IC50 [2] | IC50 (CDK9/CycT1) | SMILES
26.9 nM | 93.7 nM | > 20 µM | CC(C)c1cnn2c(NCc3nc4ccccc4[nH]3)nc(N3CCCOCC3)nc12 [Example 8, N-[(1H-benzimidazol-2-yl)methyl]-2-(1,4-oxazepan-4-yl)-8-(propan-2-yl)pyrazolo[1,5-a][1,3,5]triazin-4-amine]
0.172 nM | 5.5 nM | > 20 µM | CN1CCN(c2nc(NCc3nc4cc(F)ccc4[nH]3)n3ncc(Br)c3n2)CC1 [Example 134, 8-bromo-N-[(5-fluoro-1H-benzimidazol-2-yl)methyl]-2-(4-methylpiperazin-1-yl)pyrazolo[1,5-a][1,3,5]triazin-4-amine]
2.36 nM | 5.43 nM | > 16.1 µM | CC(C)c1cnn2c(NCc3nc4ccccc4[nH]3)nc(N3CCOC[C@@H]3C)nc12 [Example 6, N-[(1H-benzimidazol-2-yl)methyl]-2-[(3S)-3-methylmorpholin-4-yl]-8-(propan-2-yl)pyrazolo[1,5-a][1,3,5]triazin-4-amine]
0.354 nM | 7.51 nM | 5.47 µM | C[C@@H]1CN(c2nc(NCc3nc4cc(F)ccc4[nH]3)n3ncc(Br)c3n2)C[C@H](C)O1 [Example 110, 8-bromo-2-[(2R,6S)-2,6-dimethylmorpholin-4-yl]-N-[(5-fluoro-1H-benzimidazol-2-yl)methyl]pyrazolo[1,5-a][1,3,5]triazin-4-amine]
2.45 nM | 18.3 nM | > 20 µM | Cc1cccc2[nH]c(CNc3nc(N4CCN(C)CC4)nc4c(Br)cnn34)nc12 [Example 151, 8-bromo-N-[(4-methyl-1H-benzimidazol-2-yl)methyl]-2-(4-methylpiperazin-1-yl)pyrazolo[1,5-a][1,3,5]triazin-4-amine]
0.765 nM | 71.9 nM | > 20 µM | Brc1cnn2c(NCc3nc4ccccc4[nH]3)nc(N3C[C@@H]4C[C@H]3CO4)nc12 [Example 103, N-[(1H-benzimidazol-2-yl)methyl]-8-bromo-2-[(1S,4S)-2-oxa-5-azabicyclo[2.2.1]heptan-5-yl]pyrazolo[1,5-a][1,3,5]triazin-4-amine]
1.74 nM | 16.4 nM | 12.9 µM | C[C@H]1CCCCN1c1nc(NCc2nc3ccccc3[nH]2)n2ncc(Br)c2n1 [Example 141, N-[(1H-benzimidazol-2-yl)methyl]-8-bromo-2-[(2S)-2-methylpiperidin-1-yl]pyrazolo[1,5-a][1,3,5]triazin-4-amine]
1.95 nM | 23.3 nM | > 20 µM | CC(C)c1cnn2c(NCc3nc4ccccc4[nH]3)nc(N(C)CC(C)(C)O)nc12 [Example 5, 1-{[4-{[(1H-benzimidazol-2-yl)methyl]amino}-8-(propan-2-yl)pyrazolo[1,5-a][1,3,5]triazin-2-yl](methyl)amino}-2-methylpropan-2-ol]
0.249 nM | – | > 20 µM | CC1CN(C)CCN1c1nc(NCc2nc3ccccc3[nH]2)n2ncc(Br)c2n1 (centres unmarked) [Example 156, N-(1H-benzimidazol-2-ylmethyl)-8-bromo-2-(2,4-dimethylpiperazin-1-yl)pyrazolo[1,5-a][1,3,5]triazin-4-amine]
